This experiment deals with GST-tagged truncated human mutant G2019S LRRK2 (Homo sapiens, UniProt Q5S007, G2019S). Nature of the experiment: LRRK2 G2019S Km ATP LanthaScreen assay. The class given is biochemical. The following applies: 134 μM ATP (Km ATP), LRRKtide substrate, mean IC50 values; read-out: LRRK2 pIC50 (converted). As for the experimental part: Unless otherwise noted, all reactions are magnetically stirred. Unless otherwise noted, when diethyl ether is used in the experiments described below, it is Fisher ACS certified material and is stabilized with BHT. Unless otherwise noted, “concentrated” and/or “solvent removed under reduced pressure” means evaporating the solvent from a solution or mixture using a rotary evaporator or vacuum pump. Unless otherwise noted, flash chromatography is carried out on a Teledyne Isco (Lincoln, NE), Analogix (Burlington, WI), or Biotage (Stockholm, SWE) automated chromatography system using a commercially available cartridge as the column. Columns may be purchased from Teledyne Isco, Analogix, Biotage, Varian (Palo Alto, CA), or Supelco (Bellefonte, PA) and are usually filled with silica gel as the stationary phase. Reverse phase prep-HPLC conditions, where used, can be found at the end of each experimental section. Aqueous solutions were concentrated on a Genevac (Ipswich, ENG) or by freeze-drying/lyophilization. Unless otherwise noted, all LRRK2 pIC50 data presented in tables refers to the LRRK2 G2019S Km ATP LanthaScreen™ assay (Life Technologies Corp., Carlsbad, CA) that is described in the Biological Assay section.
The IC50 values reported herein were measured as follows.
Biological Assay: LRRK2 Km ATP LanthaScreen™ Assay
The LRRK2 kinase activity reported herein as IC50 values was determined with LanthaScreen™ technology from Life Technologies Corporation (Carlsbad, CA) using GST-tagged truncated human mutant G2019S LRRK2 in the presence of the fluorescein-labeled peptide substrate LRRKtide, also from Life Technologies. The data presented for the Km ATP LanthaScreen™ Assay represents mean IC50 values based on several test results and may have reasonable deviations depending on the specific conditions and reagents used. Assays were performed in the presence of 134 μM ATP (Km ATP). Upon completion, the assay was stopped and phosphorylated substrate detected with a terbium (Tb)-labeled anti-pERM antibody (cat. no. PV4898). The compound dose response was prepared by diluting a 10 mM stock of compound to a maximum concentration of 9.99 μM in 100% dimethylsulfoxide followed by custom fold serial dilution in dimethylsulfoxide nine times. Twenty nanoliters of each dilution was spotted via a Labcyte Echo onto a 384-well black-sided plate (Corning 3575) followed by 15 μl of a 1.25 nM enzyme solution in 1× assay buffer (50 mM Tris pH 8.5, 10 mM MgCl2, 0.01% Brij-35, 1 mM EGTA, 2 mM dithiothreitol, 0.05 mM sodium orthovanadate). Following a 15-minute incubation at room temperature, the kinase reaction was started with the addition of 5 μl of 400 nM fluorescein-labeled LRRKtide peptide substrate and 134 μM ATP solution in 1× assay buffer. The reaction was allowed to progress at ambient temperature for 90 minutes. The reaction was then stopped by the addition of 20 μl of TR-FRET Dilution Buffer (Life Technologies, Carlsbad, CA) containing 2 nM Tb-labeled anti-phospho LRRKtide antibody and 10 mM EDTA (Life Technologies, Carlsbad, CA). After an incubation of 1 hour at room temperature, the plate was read on an EnVision multimode plate reader (Perkin Elmer, Waltham, MA) with an excitation wavelength of 337 nm (Laser) and a reading emission at both 520 and 495 nm. Compound IC50s were interpolated from nonlinear regression best fits of the log of the final compound concentration, plotted as a function of the 520/495-nm emission ratio using Activity base. Abase uses a 4 parameter (4P) logistic fit based on the Levenberg-Marquardt algorithm.
Background: In TR-FRET formats the signal depends on donor and acceptor labels being close together.
In the case of `Cc1cc(Nc2ncc3cc(Cl)c(N4CCN(C5(C)COCC5O)[C@@H](C)C4)cc3n2)n(C2CC2)n1` (single isomer, unassigned) [Ex-13.9, 4-((S or R) (3S,4S) or (3R,4R)-4-(6-chloro-2-((1-cyclopropyl-3-methyl-1H-pyrazol-5-yl)amino)quinazolin-7-yl)-2-methylpiperazin-1-yl)-4-methyltetrahydrofuran-3-ol], the IC50 was 97.5 nM.

As to `C[C@H]1COC(=O)N1c1ccc2cnc(Nc3cnn(CC(F)(F)F)c3)nc2c1` [Ex-7.21, (4S)-4-methyl-3-(2-{[1-(2,2,2-trifluoroethyl)-1H-pyrazol-4-yl]amino}quinazolin-7-yl)-1,3-oxazolidin-2-one], the IC50 was 0.625 nM.

Regarding `C[C@]1(O)[C@@H]2CC[C@H]1CN(c1cc3nc(Nc4cnn(C5CC5(F)F)c4Cl)ncc3cc1Cl)C2` (single isomer, unassigned) [Ex-3.41, (R) or (S) (8-syn)-3-(6-chloro-2-{[5-chloro-1-(2,2-difluorocyclopropyl)-1H-pyrazol-4-yl]amino}quinazolin-7-yl)-8-methyl-3-azabicyclo[3.2.1]octan-8-ol], the IC50 was 23 nM.

`OC1CCN(c2cc3nc(Nc4cnn(C5CC5)c4)ncc3cc2Cl)CC1` [Ex-3.7, 1-{6-chloro-2-[(1-cyclopropyl-1H-pyrazol-4-yl)amino]quinazolin-7-yl} piperidin-4-ol]: the IC50 was 1.44 nM.

For the molecule `Cc1cc2cnc(Nc3cnn(C4CC4)c3C)nc2cc1N1CCN(C2COCC2O)CC1` (single isomer, unassigned) [Ex-5.7, (3S,4S) or (3R,4R) 4-(4-{2-[(1-cyclopropyl-5-methyl-1H-pyrazol-4-yl)amino]-6-methylquinazolin-7-yl}piperazin-1-yl)oxolan-3-ol], the IC50 is 0.197 nM.

Consider `FC(F)Cn1ncc(Nc2ncc3cc(Cl)c(N4CCC(N5CCCC5)CC4)cc3n2)c1Cl` [Ex-1.16, 6-chloro-N-[5-chloro-1-(2,2-difluoroethyl)-1H-pyrazol-4-yl]-7-[4-(pyrrolidin-1-yl)piperidin-1-yl]quinazolin-2-amine], for which the IC50 is 16 nM.

For the molecule `CC(C)(O)Cn1ncc(Nc2ncc3cc(Cl)c(N4CCN(C5(C)COC5)CC4)cc3n2)c1Cl` [Ex-4.51, 1-[5-chloro-4-({6-chloro-7-[4-(3-methyloxetan-3-yl)piperazin-1-yl]quinazolin-2-yl}amino)-1H-pyrazol-1-yl]-2-methylpropan-2-ol], the IC50 was 2.76 nM.

Regarding `FC1(F)CN(C2CCN(c3cc4nc(Nc5cnn(C6CC6)c5Cl)ncc4cc3Cl)CC2)C1` [Ex-1.25, 6-chloro-N-(5-chloro-1-cyclopropyl-1H-pyrazol-4-yl)-7-[4-(3,3-difluoroazetidin-1-yl)piperidin-1-yl]quinazolin-2-amine], the IC50 is 4.33 nM.

Take `Cc1c(Nc2ncc3cc(F)c(NCC4CC4)nc3n2)cnn1C1CCOCC1` [Ex-15.5, N-7-(cyclopropylmethyl)-6-fluoro-N-2-[5-methyl-1-(oxan-4-yl)-1H-pyrazol-4-yl]pyrido[2,3-d]pyrimidine-2,7-diamine]: the IC50 was 32.6 nM.

Consider `CC1(N2CCN(c3cc4nc(Nc5cnn(C6(C)CC6)c5Cl)ncc4cc3Cl)CC2)COC1` [Ex-4.22, 6-chloro-N-[5-chloro-1-(1-methylcyclopropyl)-1H-pyrazol-4-yl]-7-[4-(3-methyloxetan-3-yl)piperazin-1-yl]quinazolin-2-amine], for which the IC50 was 0.625 nM.

Regarding `CC1CN(C2COCC2O)CCN1c1cc2nc(Nc3cnn(C4CC4)c3Cl)ncc2cc1Cl` (single isomer, unassigned) [Ex-12.8, (3S,4S) or (3R, 4R)-4-((R) or (S)-4-(6-chloro-2-((5-chloro-1-cyclopropyl-1H-pyrazol-4-yl)amino)quinazolin-7-yl)-3-methylpiperazin-1-yl)tetrahydrofuran-3-ol], the IC50 is 0.088 nM.

Take `OC1COCC1N1CCN(c2cc3nc(Nc4cnn(C5CC5(F)F)c4Cl)ncc3cc2Cl)CC1` (single isomer, unassigned) [Ex-6.30, (3S,4S) or (3R,4R) 4-[4-(6-chloro-2-{[5-chloro-1-(2,2-(R) or (S)difluorocyclopropyl)-1H-pyrazol-4-yl]amino}quinazolin-7-yl)piperazin-1-yl]oxolan-3-ol]: the IC50 is 0.9 nM.

For the molecule `CC1(N2CCN(c3cc4nc(Nc5cnn(C(C)(C)C)c5)ncc4cc3Cl)CC2)COC1` [Ex-4.46, N-(1-tert-butyl-1H-pyrazol-4-yl)-6-chloro-7-[4-(3-methyloxetan-3-yl)piperazin-1-yl]quinazolin-2-amine], the IC50 is 0.792 nM.

As to `FC12CC(n3ncc(Nc4ncc5cc(Cl)c(N6CCNCC6)cc5n4)c3Cl)(C1)C2` [Ex-6.55, 6-chloro-N-(5-chloro-1-(3-fluorobicyclo[1.1.1]pentan-1-yl)-1H-pyrazol-4-yl)-7-(piperazin-1-yl)quinazolin-2-amine], the IC50 is 2.11 nM.

Turning to `COCC12CC(n3cc(Nc4ncc5cc(Cl)c(N(C)C)cc5n4)cn3)(C1)C2` [Ex-3.18, 6-chloro-N-2-{1-[3-(methoxymethyl)bicyclo[1.1.1]pentan-1-yl]-1H-pyrazol-4-yl}-N-7-,N-7-dimethylquinazoline-2,7-diamine], the IC50 is 1.95 nM.

For `C[C@H]1COC(=O)N1c1ccc2cnc(Nc3cn(C)nc3C(F)F)nc2c1` [Ex-8.12, (4S)-3-(2-{[3-(difluoromethyl)-1-methyl-1H-pyrazol-4-yl]amino}quinazolin-7-yl)-4-methyl-1,3-oxazolidin-2-one], the IC50 is 1.63 nM.

In the case of `CC1(N2CCN(c3cc4nc(Nc5cnn(CC6C[C@H](F)[C@@H](F)C6)c5)ncc4cc3Cl)CC2)COC1` [Ex-4.66, 6-chloro-N-(1-{[(3S,4S)-3,4-difluorocyclopentyl]methyl}-1H-pyrazol-4-yl)-7-[4-(3-methyloxetan-3-yl)piperazin-1-yl]quinazolin-2-amine], the IC50 was 8.88 nM.

For the molecule `FC1CN(C2CCN(c3cc4nc(Nc5cnn(C6CC6)c5Cl)ncc4cc3Cl)CC2)C1` [Ex-1.27, 6-chloro-N-(5-chloro-1-cyclopropyl-1H-pyrazol-4-yl)-7-[4-(3-fluoroazetidin-1-yl)piperidin-1-yl]quinazolin-2-amine], the IC50 is 0.778 nM.

As for `CC1(N2CCN(c3cc4nc(Nc5cnn(C6CC6(F)F)c5Cl)ncc4cc3Cl)CC2)COCC1O` (single isomer, unassigned) [Ex-6.33, (3S,4S) or (3R,4R) 4-[4-(6-chloro-2-{[5-chloro-1-(2,2-(R) or (S)difluorocyclopropyl)-1H-pyrazol-4-yl]amino}quinazolin-7-yl)piperazin-1-yl]-4-methyloxolan-3-ol], the IC50 is 0.212 nM.

For `CC(=O)N1CCN(c2cc3nc(Nc4cnn(C5CC5)c4Cl)ncc3cc2Cl)CC1` [Ex-1.30, 1-(4-{6-chloro-2-[(5-chloro-1-cyclopropyl-1H-pyrazol-4-yl)amino]quinazolin-7-yl}piperazin-1-yl)ethan-1-one], the IC50 was 7.16 nM.

For the molecule `Cc1c(Nc2ncc3cc(Cl)c(N4CCN(C5COCC5O)CC4)cc3n2)cnn1CC(F)F` (single isomer, unassigned) [Ex-6.26, (3S,4S) or (3R,4R) 4-[4-(6-chloro-2-{[1-(2,2-difluoroethyl)-5-methyl-1H-pyrazol-4-yl]amino}quinazolin-7-yl)piperazin-1-yl]oxolan-3-ol], the IC50 is 11.5 nM.

Regarding `CCn1ncc(Nc2ncc3ccc(N4C(=O)[C@@H]5CC[C@H]4C5)nc3n2)c1C` (single isomer, unassigned) [Ex-15.3, (1S,4R) or (1R,4S)-2-{2-[(1-ethyl-5-methyl-1H-pyrazol-4-yl)amino]pyrido[2,3-d]pyrimidin-7-yl}-2-azabicyclo[2.2.1]heptan-3-one], the IC50 was 4.43 nM.

On to `Cc1c(Nc2ncc3cc(Cl)c(N4CCN(C5(C)COC(C)(C)C5)CC4)cc3n2)cnn1C1CC1` (single isomer, unassigned) [Ex-12.2], for which the IC50 is 0.721 nM.

(Values after US20230303540A1 (Merck Sharp & Dohme LLC, priority 2020, published 2023).)
